The source of these data is patent US20110091375A1, “USE OF THE COMBINATION COMPRISING TEMOZOLOMIDE AND TNF-ALPHA FOR TREATING GLIOBLASTOMA” (THE UNIVERSITY OF CHICAGO, priority 2004, published 2011).

Test [1] relates to NF-κB in Panel pancreatic cancer cells. As to the kind of experiment: NF-κB-responsive luciferase reporter assay, Panel. It counts as cell-based, human. In general terms: A reporter such as luciferase makes a cellular process visible.
Test [2] concerns U87 intracranial xenografts. As to the kind of experiment: Histological analysis and TUNEL of intracranial tumor sections. It counts as in vivo, nude mice. Conditions: day 7. As for the experimental part: In a second experiment, mice were randomized into eight groups (untreated control (UTC); intratumoral (IT) Ad.Egr-TNF alone; intraperitoneal (IP) TMZ alone; IR alone; Ad.Egr-TNF and TMZ; Ad.Egr-TNF and IR; TMZ and IR; and Ad.Egr-TNF, TMZ and IR). A single dose of 5×10^5 U87 cells was inoculated into the right caudate nucleus of each mouse on day 0 using a screw guide technique (Lal, S. et al. (2000) J Neurosurg 92:326-333). On day 5, 5×10^8 pu Ad.Egr-TNF in 5 μL volume was injected once via the screw guide directly into the tumor. Beginning two hours after vector injection, 5 Gy IR was delivered to the tumor area and repeated every 2-3 days to a total of 30 Gy. TMZ (5 mg/kg) was given IP 3 h after vector inoculation and like doses were given daily for the next two days for a total dose of 15 mg/kg. Control animals received SFM IT and IP and were also placed in Lucite chambers. Daily assessment of animal appearance was made. […]
Paraffin embedded brains were sectioned (8 μm), stained with hematoxylin and eosin and analyzed in a blinded fashion.
Terminal deoxynucleotidyl transferase-mediated dUTP-biotin nick end-labeling (TUNEL) assay was performed in accordance with the manufacturer's instructions (Chemicon) and analyzed blindly at 400× magnification by use of a computer-aided light microscope with reconstruction software (Neurolucida, Microbrightfield, Vt.). […]

The subject of test [3] is NF-κB in MIAPaCa-2 pancreatic cancer cells. Put plainly: NF-κB-responsive luciferase reporter assay, MIAPaCa-2. Format: cell-based, human.
Test [4] concerns U87 cells. As to the kind of experiment: U87 cell viability (Trypan Blue dye exclusion, MTS). It counts as cell-based, human. The note with it: 10 ng/mL TNFα and/or 100 μM TMZ. As for the experimental part:
Trypan Blue dye exclusion method was employed. 10^4 U87 cells were plated and incubated at 37° C. overnight. Subsequently, the cells were contacted with media containing TNFα (10 ng/mL) and/or TMZ (100 μM), incubated for 3 h, and washed. […] All of the studies were performed in triplicate.

Test [5] has as its system NF-κB in Seg-1 esophageal cancer cells. As to the kind of experiment: NF-κB-responsive luciferase reporter assay, Seg-1. It counts as cell-based, human.
Test [6] concerns IκBα. Put plainly: TNFα-induced IκBα degradation and phosphorylation (Western blot / kinase assay). It counts as cell-based, human. As for the experimental part: Cells were then washed with 10 mL ice-cold PBS, scraped from the dish, and pelleted by centrifugation at 1000 rpm for 5 m at 4° C. Cell pellets were resuspended in 400 μl of ice-cold buffer A (10 mM HEPES, pH 7.9; 10 mM KCl; 0.1 mM EDTA; 1 mM DTT; 0.5 mM phenylmethysulfonylfluoride [PMSF]; 1 μg/mL leupeptin; 5 μg/mL aprotinin) and allowed to swell on ice for 15 m. Following the addition of 25 μl of 10% NP-40, the suspension was vortexed for 10 s and centrifuged at 14,500 rpm for 1 m at 4° C. Nuclei were resuspended in 50 μl of ice-cold buffer B (20 mM HEPES, pH 7.9; […]; 1 mM EDTA; 1 mM DTT; 1 mM PMSF; 25% glycerol; 1 μg/mL leupeptin; 5 μg/mL aprotinin) and incubated on ice for 15 m. The nuclear suspension was then centrifuged at 14,500 rpm for 5 m at 4° C. and the supernatant containing the nuclear proteins was transferred to a clean tube. Protein concentrations for each sample were determined by the Bradford method (Bio-Rad, Richmond, Calif., USA) and were adjusted to 2 μg/μl by the addition of buffer B.
(§1) 20 μg of whole U87 cell (or nuclear) lysate was subjected to sodium dodecyl sulfate (SDS)-polyacrylamide gel electrophoresis (PAGE). Following electro-transfer, Immobilon-P membranes (Millipore Corp. Burlington, Mass., USA.) were probed with primary polyclonal antibody against IκBα, phospho-Ser32-IκBα, SAPK/JNK, phospho-Thr183/Tyr185-SAPK/JNK, p65, phospho-Ser536-p65 (Cell Signaling Technology Inc. Beverly, […]., USA) diluted 1:1000 overnight at 4° C. Anti-rabbit IgG HRP-linked secondary antibody (Cell Signaling Technology) was diluted 1:1000 in blocking buffer and applied for 1 h at room temperature. Immunoreactive bands were detected by SuperSignal enhanced chemiluminescence (ECL) (Pierce, Rockford, Ill., USA) and exposed to Kodak X-Omat film.
IκK was immunoprecipitated from treated U87 cell extracts with anti-IKKβ antibody, (Santa Cruz Biotechnology, Santa Cruz, Calif., USA). […] Kinase activity was quantified using a Phosphoimager and Equal protein loading determined by immunoblotting with anti-IκKβ antibody (Upstate USA, Charlottesville, Va., USA). […]
On the technique in general: Immunoblotting shows a protein as a band on a membrane.

Test [7] relates to p65. Put plainly: TNFα-induced p65 phosphorylation (Western blot). It counts as cell-based, human. As for the experimental part:
as §1

In test [8] the test system is U87 cells infected with Ad.Egr-TNF. As to the kind of experiment: TNFα induction in vitro (Quantikine ELISA of conditioned media). It counts as cell-based, human. As for the experimental part:
10^6 U87 cells were plated and incubated overnight. The cells were then infected with Ad.Egr-TNF at a multiplicity of infection (MOI) of 100 for 3 h at 37° C. After incubation, 3.8 mL of complete media with or without TMZ was added. Conditioned media were harvested at 48 h after treatment and human TNFα production was quantified using a Quantikine ELISA kit (R&D System Inc., Minneapolis, Minn.).
On the technique in general: ELISA stands for enzyme-linked immunosorbent assay.

Regarding `Cn1nnc2c(C(N)=O)ncn2c1=O` [TMZ, temozolomide], the “TNFα-induced NF-κB transcriptional activity” value in test [1], in test [3] and in test [5] was “activated” in each case. The same molecule had a TUNEL positive cells in test [2] of 14±12 TUNEL^+ cells/10^−6 mm^2. Also, the “effect on U87 cell viability” value in test [4] is reported as “Minimal effects”. In test [6] (TMZ pretreatment, at 5 m), the “reduction of TNFα-induced phosphorylation of IκBα” value is reported as 50%. For the same molecule, the “degradation of IκBα” value in test [6] (at 15 m, TNFα with or without TMZ pretreatment) is “reduced TNFα-induced degradation”. Besides, in test [7], the “TNFα-induced p65 phosphorylation” value is “inhibits”. For the same molecule, the “TNFα detection in vitro” value in test [8] is reported as “TNFα was detected”. The “increase in TNFα expression compared to cells infected with vector alone” value in test [8] (U87 cells infected with Ad.Egr-TNF (MOI 100), 100 μM TMZ, 48 h) was 2.3 fold.
